Data set [1] concerns the target human adenosine A2A receptors (Homo sapiens, UniProt P29274). The experiment in a line: Binding affinities at hA2A receptors, displacement of [3H]-CGS 21680. Conditions: in vitro binding, radioligand [3H]-CGS 21680. The text has this: The compounds were examined in an assay measuring in vitro binding to human adenosine A2A receptors by determining the displacement of the adenosine A2A receptor selective radioligand [^3H]-CGS 21680 using standard techniques.
(Displacement assays read how much labelled ligand stays bound in the presence of the test substance.)

Each structure is given as a SMILES string. pKi: −log10 of the molar value. Where a name gives a salt, the structure may show the parent alone.

human adenosine A2A receptors, sequence (P29274 whole entry): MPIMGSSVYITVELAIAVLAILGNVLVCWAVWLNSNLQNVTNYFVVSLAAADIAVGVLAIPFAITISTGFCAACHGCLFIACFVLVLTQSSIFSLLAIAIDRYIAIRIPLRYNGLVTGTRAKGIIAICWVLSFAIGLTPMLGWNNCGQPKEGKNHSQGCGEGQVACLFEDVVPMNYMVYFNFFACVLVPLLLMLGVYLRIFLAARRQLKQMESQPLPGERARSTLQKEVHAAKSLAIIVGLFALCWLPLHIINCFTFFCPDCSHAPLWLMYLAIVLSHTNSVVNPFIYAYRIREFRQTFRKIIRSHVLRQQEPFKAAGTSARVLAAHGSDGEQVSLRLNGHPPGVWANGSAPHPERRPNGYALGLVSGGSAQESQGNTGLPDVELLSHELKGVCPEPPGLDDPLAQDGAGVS

As usually defined, the melting point is the temperature of the solid-liquid transition. As for `COc1cc(C(O)C2CCCCC2)c2ccccc2n1.Cl` (centres unmarked), the melting point lay within 155.9 to 156.3 °C.

`Cc1cc(C(O)c2ccccc2)c2ccccc2n1` (stereo not drawn) (as salt: salt) [Example 39, 2-Methyl-α-phenyl-4-quinolinemethanol]: the melting point was 192 °C (dec.). With `Cc1cc(C(O)c2ccsc2)c2ccccc2n1` (stereo not drawn) (as salt: salt) [Example 42, 2-Methyl-α-(3-thienyl)-4-quinolinemethanol], the melting point is 200 °C (dec.). Turning to `OC(c1cccs1)c1ccnc2ccccc12` (stereo not drawn) (as salt: salt) [Example 49, α-(2-Thienyl)-4-quinolinemethanol], the melting point is 173 °C (dec.).

For orientation: pKi means the negative decadic logarithm of the Ki, by convention in mol/L. Read a low pKi as a large Ki. `OC(c1ccccc1)c1cc(C(F)(F)F)nc2c(C(F)(F)F)cccc12` (stereo not drawn) [Example 1, 2,8-Bis(trinfluoromethyl)-α-phenyl-4-quinolinemethanol]: the melting point lay in the range of 151 to 152 °C. Besides, the negative logarithm of the Ki (pKi) in data set [1] was 5.77.

With `OC(c1cccs1)c1cc(C(F)(F)F)nc2c(C(F)(F)F)cccc12` (stereo not drawn) [Example 2, 2,8-Bis(trifluoromethyl)-α-(2-thienyl)-4-quinolinemethanol], in data set [1], the pKi is 5.81.

In data set [1], `OC(c1ccsc1)c1cc(C(F)(F)F)nc2c(C(F)(F)F)cccc12` (stereo not drawn) [Example 3, 2,8-Bis(trifluoromethyl)-α-(3-thienyl)-4-quinolinemethanol] showed a pKi of 6.02. Still for that read-out and setting: next, `OC(c1ccco1)c1cc(C(F)(F)F)nc2c(C(F)(F)F)cccc12` (stereo not drawn) [Example 4, 2,8-Bis(trifluoromethyl)-α-(2-furyl)-4-quinolinemethanol]: 5.95. With `OC(c1ccoc1)c1cc(C(F)(F)F)nc2c(C(F)(F)F)cccc12` (stereo not drawn) [Example 5, 2,8-Bis(trifluoromethyl)-α-(3-furyl)-4-quinolinemethanol], in data set [1], the pKi is 5.99. In data set [1], `OC(c1cc(C(F)(F)F)nc2c(C(F)(F)F)cccc12)C1CCCCC1` (stereo not drawn) [Example 7, 2,8-Bis(trifluoromethyl)-α-clohexyl-4-quinolinemethanol] showed a negative-log Ki (pKi) of 6.07.

Consider `OC(c1cc(C(F)(F)F)nc2c(C(F)(F)F)cccc12)c1cc(C(F)(F)F)nc2c(C(F)(F)F)cccc12` [Example 8, Bis(2,8-bis(trifluoromethyl)-4-quinolinyl)methanol], for which the melting point is 198 to 199 °C.

The compound `OC(Cc1cc(C(F)(F)F)nc2c(C(F)(F)F)cccc12)c1ccccc1` (stereo not drawn) [Example 9, 2,8-Bis(trifluoromethyl)-α-phenyl-4-quinolineethanol] showed a melting point of 111 to 112 °C. In turn, `OC1(c2cc(C(F)(F)F)nc3c(C(F)(F)F)cccc23)CCc2ccccc21` (centres unmarked) [Example 10, 1-(2,8-Bis(tnfluoromethyl)-4-quinolinyl)-1-indanol] showed a pKi in data set [1] of 5.76.

As for `OC1(c2cc(C(F)(F)F)nc3c(C(F)(F)F)cccc23)CCCc2ccccc21` (centres unmarked) [Example 11, 1-(2,8-Bis(trifluoromethyl)-4-quinolinyl)-1,2,3,4-tetrabydro-1-naphthol], the melting point lay within 128.8 to 129.4 °C. Also, the negative logarithm of the Ki (pKi) in data set [1] was 5.87. In data set [1], `OC1Cc2ccccc2C1c1cc(C(F)(F)F)nc2c(C(F)(F)F)cccc12` (centres unmarked) [Example 12, 1-(2,8-Bis(trifluorometbyl)-4-quinolinyl)-2-indanol] had a negative-log Ki (pKi) of 5.72. With `Cc1c(C(F)(F)F)nc2c(C(F)(F)F)cccc2c1C(O)c1cccs1` (stereo not drawn) [Example 16, 2,8-Bis(trifluoromethyl)-3-methyl-α-(2-thienyl)-4-quinolinemethanol], the melting point lay in the range of 125.1 to 125.8 °C. The compound also showed a negative-log Ki (pKi) in data set [1] of 5.75. With `OC(c1ccccc1Cl)c1cc(C(F)(F)F)nc2c(C(F)(F)F)cccc12` (stereo not drawn) [Example 18, 2,8-Bis(trifluoromethyl)-α-(2-chlorophenyl)-4-quinolinemethanol], the pKi in data set [1] was 5.92. Compound `O=[N+]([O-])c1ccccc1C(O)c1cc(C(F)(F)F)nc2c(C(F)(F)F)cccc12` (stereo not drawn) [Example 19, 2,8-Bis(trifluoromethyl)-α-(2-nitrophenyl)-4-quinolinemethanol] showed a pKi in data set [1] of 5.76. This pKi and that of the compound before are within 0.2 log units of each other. `OC(c1c(Cl)cccc1Cl)c1cc(C(F)(F)F)nc2c(C(F)(F)F)cccc12` (stereo not drawn) [Example 20, 2,8-Bis(trifluoromethyl)-α-(2,6-dichlorophenyl)-4-quinolinemethanol] had a melting point of 151.2 to 151.7 °C. This compound also showed a negative logarithm of the Ki (pKi) in data set [1] of 6.19. Compound `Cc1cccc2c(C(O)c3ccccc3)cc(C(F)(F)F)nc12` (stereo not drawn) [Example 26, 8-Methyl-α-phenyl-2-trifluoromethyl-4-quinolinemethanol] gave a pKi in data set [1] of 5.95. With `Cc1cccc2c(C(O)c3ccccc3Cl)cc(C(F)(F)F)nc12` (stereo not drawn) [Example 27, α-(2-Chlorophenyl)-8-methyl-2-trinfluoromethyl-4-quinolinemethanol], in data set [1], the pKi was 5.95. `Cc1cccc2c(C(O)C3CCCCC3)cc(C(F)(F)F)nc12` (stereo not drawn) [Example 29, α-Cyclohexyl-8-methyl-2-trifluoromethy-4-quinolinemethanol] showed a negative logarithm of the Ki (pKi) in data set [1] of 6.02. With `CCc1cccc2c(C(O)c3ccsc3)cc(C(F)(F)F)nc12` (stereo not drawn) [Example 32, 8-Ethyl-α-(3-thienyl)-2-trifluoromethyl-4-quinolinemethanol], the pKi in data set [1] is 5.97.

In the case of `CN(C)c1cc(C(O)c2ccccc2)c2ccccc2n1` (stereo not drawn) [Example 35, 2-Dimethylamino-α-phenyl-4-quinolinemethanol], the melting point fell in the range of 153.6 to 154.3 °C. On the same count and under the same terms, next, `OC(c1ccsc1)c1cc(-c2ccccc2)nc2ccccc12` (stereo not drawn) [Example 41, 2-Phenyl-α-(3-thienyl)-4-quinolinemethanol]: 158 to 159 °C.

`OC(c1ccsc1)c1cc(C(F)(F)F)nc2ccccc12` (stereo not drawn) [Example 43, α-(3-Thienyl)-2-trifluoromethyl-4-quinolinemethanol] returned a melting point of 144 to 146 °C.

Take `OC1(c2cc(C(F)(F)F)nc3ccccc23)CCSC1` (centres unmarked) [Example 44, 3-(2-trifluoromethyl-4-quinolinyl)tetrahydrothiophene-3-ol]: the melting point was in the range of 130 to 131 °C. In turn, `COc1cccc2c(C(O)c3ccsc3)cc(C(F)(F)F)nc12` (stereo not drawn) [Example 46, 8-Methoxy-α-(3-thienyl)-2-trifluoromethyl-4-quinolinemethanol] had a melting point of 157 to 158 °C. Regarding `OC(c1ccsc1)c1cc(C(F)(F)F)nc2c(Cl)cccc12` (stereo not drawn) [Example 47, 8-Chloro-α-(3-thienyl)-2-trifluoromethyl-4-quinolinemethanol], the negative logarithm of the Ki (pKi) in data set [1] was 5.97.

The compound `OC(Cc1cc(C(F)(F)F)nc2c(C(F)(F)F)cccc12)c1cc2ccccc2o1` (stereo not drawn) [Example 51, α-(2-Benzofuranyl)-2,8-bis(trifluoromethyl)-4-quinolineethanol] had a melting point of 123 to 124 °C. Turning to `CC(O)(c1cc2ccccc2o1)c1cc(C(F)(F)F)nc2c(C(F)(F)F)cccc12` (centres unmarked) [Example 51], the pKi in data set [1] was 5.82.

`OC1(c2cc(C(F)(F)F)nc3c(C(F)(F)F)cccc23)C=CCC1` (centres unmarked) [Example 53, 1-(2,8-Bis(trifluoromethyl)-4-quinolinyl)cyclopent-2-ene-1-ol]: the melting point lay within 73 to 74 °C. In the case of `Cc1cc(C(O)C2CCCCC2)c2cccc(C)c2n1` (stereo not drawn) [Example 54, α-Cyclohexyl-2,8-dimethyl-4-quinolinemethanol], the melting point lay in the range of 155 to 157 °C.

Turning to `O=C(NCc1ccccc1)c1cc(C(O)C2CCCCC2)c2ccccc2n1` (centres unmarked) [Example 61, N-Benzyl-4-(1-cyclohexyl-1-hydroxymethyl)-2-quinolinecarboxamide], the melting point was in the range of 152.8 to 153.3 °C. With `Cc1cccc2c(C(O)c3ccccn3)cc(Br)nc12` (stereo not drawn) [Example 64, 2-Bromo-8-methyl-α-(2-pyridyl)-4-quinolinemethanol], the melting point is 149 °C (dec.).

As to `Cc1cccc2c(C(O)c3ccccc3)cc(Br)nc12` (stereo not drawn) [Example 65, 2-Bromo-8-methyl-α-phenyl-4-quinolinemethanol], the melting point was in the range of 130.7 to 131.8 °C.

With `COc1cc(C(O)c2ccccn2)c2cccc(C)c2n1` (stereo not drawn) [Example 67, 2-Methoxy-8-methyl-α-(2-pyridyl)-4-quinolinemethanol], the melting point fell in the range of 126.8 to 127.6 °C.

`Oc1ccc(C(O)c2cc(C(F)(F)F)nc3c(C(F)(F)F)cccc23)cc1` (stereo not drawn) [Example 74, 2,8-Bis(trifluoromethyl)-α-(4-hydroxyphenyl)-4-quinolinemethanol] gave a pKi in data set [1] of 5.79.

Take `Nc1ccccc1C(O)c1cc(C(F)(F)F)nc2c(C(F)(F)F)cccc12` (stereo not drawn) [Example 76, α-(2-Aminophenyl)-2,8-bis(trifluoromethyl)-4-quinolinemethanol]: the melting point lay within 145.9 to 146.2 °C.

`OC(c1cc(NCc2ccccc2)nc2ccccc12)C1CCCCC1` (stereo not drawn) [Example 79, 2-Benzylamino-α-cyclohexyl-4-quinolinemethanol] had a melting point of 122.5 to 123.1 °C. `OCCCCC(O)c1cc(C(F)(F)F)nc2c(C(F)(F)F)cccc12` (centres unmarked) [Example 82, 1-(2,8-Bis(trifluoromethyl)-4-quinolinyl)-5-hydroxypentanol] yielded a melting point of 120.6 to 120.9 °C. Regarding `OC(c1ccccc1)c1cc(Cl)nc2ccccc12` (stereo not drawn) [Example 83, 2-Chloro-α-phenyl-4-quinolinemethanol], the melting point was in the range of 144 to 146 °C. The same measure, in the same setting: next, `Cc1cccc2c(C(O)c3ccccn3)cc(O)nc12` (stereo not drawn) [Example 88, 2-Hydroxy-8-methyl-α-(2-pyridyl)-4-quinolinemethanol]: 215 °C (dec.). With `Oc1cc(C(O)(c2ccccc2)c2ccccc2)c2ccccc2n1` [Example 90, α,α-Diphenyl-2-hydroxy-4-quinolinemethanol], the melting point is > 350 °C.

Take `OC(c1ccccc1)c1cc(-c2ccccc2)nc2ccccc12` (stereo not drawn) [Example 91, 2,α-Diphenyl-4-quinolinemethanol]: the melting point was 111 to 112 °C. Still for that read-out and setting: next, `FC(F)(F)c1cc(-c2ccco2)c2cccc(C(F)(F)F)c2n1` [Example 93, 2,8-Bis(trifluoromethyl)-4-(2-furanyl)quinoline]: 82 to 83 °C.

The values are drawn from patent US6583156B1 (Vernalis Research Limited, priority 1998, dated 2003).
